Values of other authors in US10828414B2, “Magnetic filtration devices and methods related thereto” (The Regents of the University of California, priority 2015, dated 2020).

Details: IAC, regardless of infused dose

COc1cccc2c1C(=O)c1c(O)c3c(c(O)c1C2=O)C[C@@](O)(C(=O)CO)C[C@@H]3O[C@H]1C[C@H](N)[C@H](O)[C@H](C)O1 [Dox, doxorubicin]
first pass hepatic clearance: 50-70%
